Results published in US20110160223A1, “NMDA Receptor Antagonists for the Treatment of Neuropsychiatric Disorders” (priority 2008, published 2011).
Where two headings read alike, the source gives them in different places.

Experiments:
[1] = Brain exposure (brain:plasma ratio, Table 24); format: in vivo, Rats
Procedure: Animals were fasted overnight prior to dose administration and food returned to the animals two hours after dosing. Following IV dosing, blood samples (ca 200 μL) were collected into separate tubes containing anticoagulant (K-EDTA) via the orbital plexus at various times post administration. Plasma samples were prepared immediately after collection by centrifugation for ten minutes using a tabletop centrifuge, and stored at −80° C. Brain tissue was weighed, homogenized on ice in 50 mM phosphate buffer (2 ml per brain) and the homogenate stored at −80° C. Plasma and brain homogenate samples were extracted by the addition of 5 volumes of cold acetonitrile, mixed well by vortexing and centrifuged at 4000 rpm for 15 minutes. The supernatant fractions were analyzed by LC-MS/MS operating in multiple reaction monitoring mode (MRM). The amount of parent compound in each sample was calculated by comparing the response of the analyte in the sample to that of a standard curve.

[2] = system: MDR1-MDCK cell monolayers that express the multidrug transporter P-gp; experiment: In vitro cell permeability assay to predict brain penetration potential; format: in vitro ADME; parameters: key: High: when Papp A−B≧3.0×10−6 cm/s, and efflux<3.0; Moderate: when Papp A−B≧3.0×10−6 cm/s, and 10>efflux≧3.0; Low: when either Papp A−B≧3.0×10−6 cm/s, and efflux≧10, or when Papp A−B<3.0×10−6 cm/s; settings: 5 μM, pH 7.4, 2 hr, from Papp A-B and efflux ratio
Procedure: Penetration Classification (Table 24) using the in vitro cell permeability assay to predict bran penetration potential: Transwell® wells containing MDR1-MDCK cell monolayers that express the multidrug transporter P-gp were used for measuring the percent recovery of compound after dosing both sides of a cell monolayer with the test article. Monolayers were grown for 7-11 days at which time 5 μM of the test article was made by dilution from DMSO stocks into a Hank's balanced salt solution (pH 7.4), final DMSO not greater than 1%, and added to: a) the apical side for A-B permeability (apical to basal) assessment, or separately b) the basal side for the B-A permeability (basal to apical) assessment, all at pH 7.4. After a 2 hr incubation (37° C.) both the apical and the basal compartments were sampled and the amount of test article present determined by generic LC-MS/MS methods against a ≧4 point calibration curve. Experiments were done in duplicate. Apparent permeability (Papp units are reported×10−6 cm/s) are determined for the A−B and the B−A directions as well as the Efflux ratio (PappB−A/Papp A−B). The blood-brain barrier penetration potential is classified as follows: “High” when Papp A−B≧3.0×10−6 cm/s, and efflux<3.0; “Moderate” when Papp A−B≧3.0×10−6 cm/s, and 10>efflux≧3.0; and “Low” when either Papp A−B≧3.0×10−6 cm/s, and efflux≧10, or when Papp A−B<3.0×10−6 cm/s.

[3] = biological target: T1, human ether-a-go-go potassium channel (hERG) expressed in HEK293 cells (Homo sapiens, UniProt Q12809); experiment: hERG binding by displacement of 3[H]-astemizole; settings: 3[H]-astemizole displacement; Ki from IC50 by Cheng and Prusoff
T1 construct: expressed in transfected cells; host or cells: HEK293
Procedure: Compounds were evaluated for binding to the human ether-a-go-go potassium channel (hERG) expressed in HEK293 cells by displacement of ^3[H]-astemizole according to the methods by Finlayson et al. (K. Finlayson., L. Turnbull, C. T. January, J. Sharkey, J. S. Kelly; ^3[H]Dofetilide binding to HERG transfected membranes: a potential high throughput preclinical screen. Eur. J. Pharmacol. 2001, 430, 147-148). Compounds were incubated at 1 or 10 μM final concentration, in duplicate, and the amount of displaced ^3[H]-astemizole determined by liquid scintillation spectroscopy. In some cases, a seven concentration (each concentration in duplicate) displacement curve was generated to determine an IC50.
(§1) Binding IC50 values were determined from displacement curves (four-six concentrations, each concentration in duplicate) fit by a non-linear, least squares, regression analysis using MathIQ (ID Business Solutions Ltd., UK). The binding Ki's were determined from the IC50 according to the method of Cheng and Prusoff (Y. Cheng and W. H. Prusoff; Relationship between the inhibition constant (K1) and the concentration of inhibitor which causes 50 percent inhibition (IC50) of an enzymatic reaction. Biochem. Pharmacol. 1973, 22: 3099-3108).

[4] = biological target: NMDA receptor (NR1 + NR2 subunits) (Rattus norvegicus, UniProt P35439+Q00960); experiment: Two electrode voltage clamp recording from Xenopus laevis oocytes (pH dependence of NMDA antagonism); format: cell-based; settings: Table 22
Procedure: cRNA was synthesized from linearized template cDNA for rat glutamate receptor subunits according to manufacturer specifications (Ambion). Quality of synthesized cRNA was assessed by gel electrophoresis, and quantity was estimated by spectroscopy and gel electrophoresis. Stage V and VI oocytes were surgically removed from the ovaries of large, well-fed and healthy Xenopus laevis anesthetized with 3-amino-benzoic acid ethyl ester (3 gm/l) as previously described. Clusters of isolated oocytes were incubated with 292 U/ml Worthington (Freehold, N.J.) type IV collagenase or 1.3 mg/ml collagenase (Life Technologies, Gaithersburg, Md.; 17018-029) for 2 hr in Ca^2+-free solution comprised of (in mM) 115 NaCl, 2.5 KCl, and 10 HEPES, pH 7.5, with slow agitation to remove the follicular cell layer. Oocytes were then washed extensively in the same solution supplemented with 1.8 mM CaCl2 and maintained in Barth's solution comprised of (in mM): 88 NaCl, 1 KCl, 2.4 NaHCO3, 10 HEPES, 0.82 MgSO4, 0.33 Ca(NO3)2, and 0.91 CaCl2 and supplemented with 100 μg/ml gentamycin, 10 μg/ml streptomycin, and 10 μg/ml penicillin. Oocytes were manually defolliculated and injected within 24 hrs of isolation with 3-5 ng of NR1 subunit cRNA and 7-10 ng of NR2 cRNA subunit in a 50 nl volume, or 5-10 ng of AMPA or kainate receptor cRNAs in a 50 nl volume, and incubated in Barth's solution at 18° C. for 1-7 d. Glass injection pipettes had tip sizes ranging from 10-20 microns, and were backfilled with mineral oil.
Two electrode voltage-clamp recordings were made 2-7 days post-injection as previously described. Oocytes were placed in a dual-track plexiglass recording chamber with a single perfusion line that splits in a Y-configuration to perfuse two oocytes. Dual recordings were made at room temperature (23° C.) using two Warner OC725B two-electrode voltage clamp amplifiers, arranged as recommended by the manufacturer. Glass microelectrodes (1-10 Megaohms) were filled with 300 mM KCl (voltage electrode) or 3 M KCl (current electrode). The bath clamps communicated across silver chloride wires placed into each side of the recording chamber, both of which were assumed to be at a reference potential of 0 mV. Oocytes were perfused with a solution comprised of (in mM) 90 NaCl, 1 KCl, 10 HEPES, and 0.5 BaCl2; pH was adjusted by addition of 1-3 M NaOH of HCl. Oocytes were recorded under voltage clamp at −40 mV. Final concentrations for control application of glutamate (50 μM) plus glycine (30 μM) were achieved by adding appropriate volumes from 100 and 30 mM stock solutions, respectively. In addition, 10 μM final EDTA was obtained by adding a 1:1000 dilution of 10 mM EDTA, in order to chelate contaminant divalent ions such as Zn^2+. Concentration-response curves for experimental compounds were obtained by applying in successive fashion maximal glutamate/glycine, followed by glutamate/glycine plus variable concentrations of experimental compounds. Dose response curves consisting of 4 to 8 concentrations were obtained in this manner. The baseline leak current at −40 mV was measured before and after recording, and the full recording linearly corrected for any change in leak current. Oocytes with glutamate-evoked responses smaller than 50 nA were not included in the analysis. The level of inhibition by applied experimental compounds was expressed as a percent of the initial glutamate response, and averaged together across oocytes from a single frog. Each experiment consisted of recordings from 3 to 10 oocytes obtained from a single frog. Results from 3-6 experiments were pooled, and the average percent responses at antagonist concentrations were fitted by the equation,
Percent Response=(100−minimum)/(1+([conc]/IC50)^nH)+minimum […]

[5] = biological target: rat alpha-1 adrenergic receptor in rat brain membranes; experiment: alpha-1 adrenergic receptor binding by displacement of 3[H]-prazosin; settings: 3[H]-prazosin displacement, read-out: α1 IC50
Procedure: Binding to the rat alpha-1 adrenergic receptor in rat brain membranes was determined by displacement of ^3[H]-prazosin (P. Greengrass and R. Bremner; Binding characteristics of 3H-prazosin to rat brain a-adrenergic receptors. Eur. J. Pharmacol. 1979, 55: 323-326). Compounds were incubated at 0.3 or 3 μM final concentration, in duplicate, and the amount of displaced ^3[H]-prazosin determined by liquid scintillation spectroscopy.
as §1

[6] = rat, brain and plasma, iv, 3 mg/kg, 3 MPK i.v., 30 m, read-out: RATIO: Brain:plasma (Direct)
[7] = rat, brain and plasma, iv, 3 mg/kg, 3 MPK i.v., 1 hr, read-out: RATIO: Brain:plasma (Direct)
[8] = rat, brain and plasma, iv, 3 mg/kg, 3 MPK i.v., avg, read-out: RATIO: Brain:plasma (Direct)

NMDA receptor (NR1 + NR2 subunits), sequence (Q00960 27-1482, other chains not shown): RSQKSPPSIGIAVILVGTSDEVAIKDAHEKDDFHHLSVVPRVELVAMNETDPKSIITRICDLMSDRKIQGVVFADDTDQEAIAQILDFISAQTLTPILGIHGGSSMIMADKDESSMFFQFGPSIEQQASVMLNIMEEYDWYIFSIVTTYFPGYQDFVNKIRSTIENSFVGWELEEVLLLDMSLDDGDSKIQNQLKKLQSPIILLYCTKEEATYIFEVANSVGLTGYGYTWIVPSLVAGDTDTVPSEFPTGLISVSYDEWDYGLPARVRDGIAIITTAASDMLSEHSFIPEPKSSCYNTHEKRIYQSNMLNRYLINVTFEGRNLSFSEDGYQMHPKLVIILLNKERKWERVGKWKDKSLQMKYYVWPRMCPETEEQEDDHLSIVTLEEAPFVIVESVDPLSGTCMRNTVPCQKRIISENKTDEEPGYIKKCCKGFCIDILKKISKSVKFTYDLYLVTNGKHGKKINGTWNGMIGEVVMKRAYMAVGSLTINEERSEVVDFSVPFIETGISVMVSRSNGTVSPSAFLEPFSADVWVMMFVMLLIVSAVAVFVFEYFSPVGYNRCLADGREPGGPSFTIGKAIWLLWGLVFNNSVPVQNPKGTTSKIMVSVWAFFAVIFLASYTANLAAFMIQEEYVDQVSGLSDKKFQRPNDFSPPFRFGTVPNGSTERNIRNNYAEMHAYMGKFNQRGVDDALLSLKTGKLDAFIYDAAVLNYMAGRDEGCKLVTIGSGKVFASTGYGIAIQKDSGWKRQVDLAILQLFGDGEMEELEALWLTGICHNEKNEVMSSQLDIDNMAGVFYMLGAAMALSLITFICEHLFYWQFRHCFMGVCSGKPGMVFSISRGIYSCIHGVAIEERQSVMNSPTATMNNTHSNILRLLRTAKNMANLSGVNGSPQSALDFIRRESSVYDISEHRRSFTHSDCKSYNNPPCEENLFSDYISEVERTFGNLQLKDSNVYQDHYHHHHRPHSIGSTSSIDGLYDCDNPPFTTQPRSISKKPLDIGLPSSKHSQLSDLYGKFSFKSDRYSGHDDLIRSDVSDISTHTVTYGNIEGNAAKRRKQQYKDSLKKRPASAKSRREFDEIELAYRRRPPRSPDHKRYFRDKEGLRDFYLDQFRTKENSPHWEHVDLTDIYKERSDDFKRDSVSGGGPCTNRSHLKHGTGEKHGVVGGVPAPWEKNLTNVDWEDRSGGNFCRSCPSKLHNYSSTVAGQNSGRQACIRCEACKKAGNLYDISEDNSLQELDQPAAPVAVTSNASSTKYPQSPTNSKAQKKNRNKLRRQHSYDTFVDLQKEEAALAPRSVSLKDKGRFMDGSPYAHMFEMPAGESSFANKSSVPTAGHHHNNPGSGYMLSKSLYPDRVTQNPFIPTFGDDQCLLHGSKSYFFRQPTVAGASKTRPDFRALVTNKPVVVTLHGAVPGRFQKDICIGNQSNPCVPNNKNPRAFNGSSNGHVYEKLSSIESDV
T1 sequence (Q12809 whole entry): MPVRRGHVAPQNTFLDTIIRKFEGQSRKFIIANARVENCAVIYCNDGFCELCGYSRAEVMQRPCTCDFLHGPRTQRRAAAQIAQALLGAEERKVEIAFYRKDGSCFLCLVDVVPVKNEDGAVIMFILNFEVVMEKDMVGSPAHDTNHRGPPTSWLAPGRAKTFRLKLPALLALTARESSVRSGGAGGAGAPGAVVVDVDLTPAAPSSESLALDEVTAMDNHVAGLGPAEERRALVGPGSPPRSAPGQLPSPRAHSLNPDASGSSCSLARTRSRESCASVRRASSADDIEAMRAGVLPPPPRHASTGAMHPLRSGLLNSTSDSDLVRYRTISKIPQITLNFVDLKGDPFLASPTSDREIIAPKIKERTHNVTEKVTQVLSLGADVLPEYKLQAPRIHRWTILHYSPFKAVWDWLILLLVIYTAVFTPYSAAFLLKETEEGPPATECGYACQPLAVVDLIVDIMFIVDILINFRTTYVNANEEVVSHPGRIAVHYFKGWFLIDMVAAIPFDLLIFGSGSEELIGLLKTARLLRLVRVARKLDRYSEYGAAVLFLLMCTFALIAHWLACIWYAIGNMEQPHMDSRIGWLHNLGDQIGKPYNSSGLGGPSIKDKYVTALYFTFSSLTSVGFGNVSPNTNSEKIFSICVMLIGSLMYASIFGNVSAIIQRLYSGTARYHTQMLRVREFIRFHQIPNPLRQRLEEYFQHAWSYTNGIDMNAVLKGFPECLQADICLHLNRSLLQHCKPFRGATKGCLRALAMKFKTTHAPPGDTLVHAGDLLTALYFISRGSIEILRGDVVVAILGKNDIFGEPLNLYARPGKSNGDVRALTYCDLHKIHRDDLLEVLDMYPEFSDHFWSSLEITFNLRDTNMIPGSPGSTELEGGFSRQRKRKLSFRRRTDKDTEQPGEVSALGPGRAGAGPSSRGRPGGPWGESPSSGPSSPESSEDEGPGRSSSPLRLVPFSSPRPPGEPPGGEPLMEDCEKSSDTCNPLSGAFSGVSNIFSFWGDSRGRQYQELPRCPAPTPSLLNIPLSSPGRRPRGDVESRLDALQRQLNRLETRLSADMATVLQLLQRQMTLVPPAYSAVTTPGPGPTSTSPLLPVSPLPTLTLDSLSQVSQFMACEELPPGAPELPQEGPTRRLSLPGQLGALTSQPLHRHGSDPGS

IC50 ([4]; pH 6.9, read-out: IC50 pH 6.9)	IC50 ([4]; pH 7.6, read-out: IC50 pH 7.6)	IC50 [5]	SMILES	BBB Pene Classification [2]	Ki [3]	other results
74 nM	555 nM	720 nM	Oc1ccc(OC[C@@H](O)CN2CCN(c3ccc(Cl)cc3)CC2)cc1 [drawing 775]	–	39000 nM	–
370 nM	29 nM	~100 nM	O=C1Cc2cc(OC[C@@H](O)CN3CCN(c4ccc(Cl)cc4)CC3)ccc2N1	–	~10000 nM	–
410 nM	3830 nM	~300 nM	O[C@H](COc1ccc2[nH]ncc2c1)CN1CCN(c2ccc(Cl)cc2)CC1	–	~1000 nM	–

Second part, the molecule before the results:

SMILES	IC50 ([4]; pH 6.9, read-out: IC50 pH 6.9)	IC50 ([4]; pH 7.6, read-out: IC50 pH 7.6)	IC50 [5]	BBB Pene Classification [2]	Ki [3]	other results
Cc1ccc(N2CCN(C[C@H](O)COc3ccc4[nH]c(=O)oc4c3)CC2)cc1 [drawing 801]	–	–	–	Moderate (when Papp A−B≧3.0×10−6 cm/s, and 10>efflux≧3.0)	–	Kp at 30 min [1, 6]: 2.3; Kp at 1 h [1, 7]: 2.9; Kp at 2 h ([1]; rat, brain and plasma, iv, 3 mg/kg, 3 MPK i.v., read-out: RATIO: Brain:plasma (Direct)): 1.7; Kp [1, 8]: 2.3
O=C1N(C[C@H](O)COc2ccc(O)cc2)CCN1c1ccc(Cl)cc1 [drawing 804]	–	–	–	High (when Papp A−B≧3.0×10−6 cm/s, and efflux<3.0)	–	Kp at 30 min [1, 6]: 0.68; Kp at 1 h [1, 7]: 0.49; Kp [1, 8]: 0.59
O=c1[nH]c2ccc(OC[C@@H](O)CN3CCN(c4ccc(Cl)cc4)CC3)cc2[nH]1 [drawing 781]	14 nM	103 nM	~350 nM	–	~7500 nM	–
NC(=O)Nc1ccc(OC[C@@H](O)CN2CCN(c3ccc(Cl)cc3)C2=O)cc1 [drawing 805]	–	–	–	Low	–	RATIO: Brain:plasma (Direct) ([1]; 1 MPK i.v.): Below Detection limit (~0)
O=c1ccc2cc(OC[C@@H](O)CN3CCN(c4ccc(Cl)cc4)CC3)ccc2[nH]1	69 nM	550 nM	~350 nM	–	~7500 nM	–
CS(=O)(=O)Nc1ccc(OC[C@@H](O)CN2CCN(c3ccc(F)c(F)c3)CC2)cc1 [drawing 802]	–	–	–	Moderate (when Papp A−B≧3.0×10−6 cm/s, and 10>efflux≧3.0)	–	Kp at 30 min ([1]; rat, brain and plasma, ip, 60 mg/kg, 60 MPK, i.p., 30 m, read-out: RATIO: Brain:plasma (Direct)): 0.7; Kp at 2 h ([1]; rat, brain and plasma, ip, 60 mg/kg, 60 MPK, i.p., read-out: RATIO: Brain:plasma (Direct)): 0.7; Kp at 4 h ([1]; rat, brain and plasma, ip, 60 mg/kg, 60 MPK, i.p., 4 hr, read-out: RATIO: Brain:plasma (Direct)): 0.9; Kp ([1]; rat, brain and plasma, ip, 60 mg/kg, 60 MPK, i.p., avg, read-out: RATIO: Brain:plasma (Direct)): 0.77
NC(=O)Nc1ccc(OC[C@@H](O)CN2CCN(c3ccc(Cl)cc3)CC2)cc1 [drawing 778]	46 nM	452 nM	340 nM	–	13000 nM	–
Oc1ccc(OC[C@@H](O)CN2CCN(c3ccc(Cl)cc3)CC2)cc1 [drawing 800]	–	–	–	High (when Papp A−B≧3.0×10−6 cm/s, and efflux<3.0)	–	Kp at 30 min [1, 6]: 11; Kp at 1 h [1, 7]: 9.5; Kp [1, 8]: 10.2
CS(=O)(=O)Nc1ccc(OC[C@@H](O)CN2CCN(c3ccc(Cl)cc3)CC2)cc1	32 nM	270 nM	350 nM	–	553 nM	–
O=c1[nH]c2ccc(OC[C@@H](O)CSc3nc4cc(Cl)c(Cl)cc4[nH]3)cc2o1 [drawing 809]	–	–	–	Moderate (when Papp A−B≧3.0×10−6 cm/s, and 10>efflux≧3.0)	–	RATIO: Brain:plasma (Direct) ([1]; 3 MPK i.v., 30 m): BLQ (avg); BLQ (30 m), BLQ (1 hr),; RATIO: Brain:plasma (Direct) ([1]; 3 MPK i.v., 1 hr): BLQ (avg); BLQ (30 m), BLQ (1 hr),; RATIO: Brain:plasma (Direct) ([1]; 3 MPK i.v., avg): BLQ (avg); BLQ (30 m), BLQ (1 hr),
O[C@H](COc1ccc2[nH]c(=S)[nH]c2c1)CN1CCN(c2ccc(Cl)cc2)CC1	16 nM	76 nM	~150 nM	–	~7500 nM	–
O=C1CCc2cc(OC[C@@H](O)CN3CCN(c4ccc(Cl)cc4)CC3)ccc2N1	12 nM	66 nM	~100 nM	–	~5000 nM	–
O=c1[nH]c2ccc(OC[C@@H](O)CN3CCN(c4ccc(Cl)cc4)CC3)cc2o1 [drawing 776]	51 nM	447 nM	620 nM	–	1600 nM	–
